Activity calls are given as the source filed them. No cut-off for these calls is given here.
Assays:
[1] = target: T1, Amine oxidase [flavin-containing] A (Rattus norvegicus, UniProt P21396); experiment: Displacement of [3H]Ro 41-1049 from MAO-A in rat cerebral cortex by competition binding assay; assay type: tissue-based; settings: for Ki: read-out: Ki(app)
T1 sequence (P21396 whole entry): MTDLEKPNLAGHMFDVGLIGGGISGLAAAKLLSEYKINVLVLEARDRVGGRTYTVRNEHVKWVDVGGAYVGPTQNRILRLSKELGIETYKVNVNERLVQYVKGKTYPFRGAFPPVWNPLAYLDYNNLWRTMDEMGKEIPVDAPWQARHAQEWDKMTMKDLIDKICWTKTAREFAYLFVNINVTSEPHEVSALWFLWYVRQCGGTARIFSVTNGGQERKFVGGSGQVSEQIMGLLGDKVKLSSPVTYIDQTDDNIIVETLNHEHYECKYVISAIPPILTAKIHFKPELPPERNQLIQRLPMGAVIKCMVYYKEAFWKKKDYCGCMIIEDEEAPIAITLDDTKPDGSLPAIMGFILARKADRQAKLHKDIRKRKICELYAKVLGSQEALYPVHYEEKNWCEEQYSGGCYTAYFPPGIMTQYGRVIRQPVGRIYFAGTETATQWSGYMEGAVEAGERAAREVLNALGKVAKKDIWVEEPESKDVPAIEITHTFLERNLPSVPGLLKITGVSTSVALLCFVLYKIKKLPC

[2] = target: Sodium-dependent dopamine transporter (Homo sapiens) (UniProt Q01959); experiment: Displacement of [3H]BTCP from human DAT at 1 uM by CEREP assay
Sodium-dependent dopamine transporter (Homo sapiens), sequence (Q01959 whole entry): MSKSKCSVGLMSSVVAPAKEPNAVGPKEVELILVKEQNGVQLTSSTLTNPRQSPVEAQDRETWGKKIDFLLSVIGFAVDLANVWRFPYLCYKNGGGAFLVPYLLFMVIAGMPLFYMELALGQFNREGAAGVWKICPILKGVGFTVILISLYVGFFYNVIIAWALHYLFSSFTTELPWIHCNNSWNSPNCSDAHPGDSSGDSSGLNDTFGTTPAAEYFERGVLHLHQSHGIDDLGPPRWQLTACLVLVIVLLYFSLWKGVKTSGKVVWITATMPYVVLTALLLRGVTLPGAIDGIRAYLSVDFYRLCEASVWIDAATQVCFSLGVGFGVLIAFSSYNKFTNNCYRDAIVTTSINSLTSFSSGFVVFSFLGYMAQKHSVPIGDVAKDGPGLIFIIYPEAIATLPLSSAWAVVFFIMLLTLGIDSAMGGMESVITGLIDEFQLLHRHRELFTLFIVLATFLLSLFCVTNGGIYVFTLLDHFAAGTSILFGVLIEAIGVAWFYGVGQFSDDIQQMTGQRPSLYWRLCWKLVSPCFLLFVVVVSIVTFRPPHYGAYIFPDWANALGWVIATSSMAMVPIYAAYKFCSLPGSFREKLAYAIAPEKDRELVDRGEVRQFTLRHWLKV

[3] = target: T2, D(2) dopamine receptor (Homo sapiens, UniProt P14416); experiment: Displacement of [3H]methylspiperone from human low affinity Dopamine D2S receptor by competition binding assay
T2 sequence (P14416 whole entry): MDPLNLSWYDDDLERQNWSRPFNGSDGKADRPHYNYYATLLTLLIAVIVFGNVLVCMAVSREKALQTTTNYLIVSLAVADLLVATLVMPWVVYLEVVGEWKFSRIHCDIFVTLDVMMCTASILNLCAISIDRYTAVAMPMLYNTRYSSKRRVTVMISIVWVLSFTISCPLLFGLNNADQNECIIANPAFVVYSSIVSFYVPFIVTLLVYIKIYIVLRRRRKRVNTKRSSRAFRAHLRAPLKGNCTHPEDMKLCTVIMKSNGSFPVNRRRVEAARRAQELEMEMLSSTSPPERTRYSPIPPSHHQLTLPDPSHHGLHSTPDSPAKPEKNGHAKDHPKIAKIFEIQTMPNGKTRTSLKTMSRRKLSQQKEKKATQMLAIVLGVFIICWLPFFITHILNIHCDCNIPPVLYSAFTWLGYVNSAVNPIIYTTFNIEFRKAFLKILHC

[4] = tested on: Rattus norvegicus; experiment: Reduction in spontaneous locomotor activity in Sprague-Dawley rat at 100 umol/kg, sc measured after 15 to 60 mins relative to saline-treated control; assay type: functional; parameters: scale not given: the % may be the effect or the level left
[5] = tested on: Rattus norvegicus; experiment: Decrease in 5-HIAA level in Sprague-Dawley rat striatum at 100 umol/kg, sc by HPLC analysis relative to saline-treated control; assay type: functional; parameters: scale not given: the % may be the effect or the level left
[6] = target: D(3) dopamine receptor (Homo sapiens, UniProt P35462); experiment: Displacement of [3H]7-OH-DPAT from human dopamine D3 receptor at 1 uM by CEREP assay
D(3) dopamine receptor, sequence (P35462 whole entry): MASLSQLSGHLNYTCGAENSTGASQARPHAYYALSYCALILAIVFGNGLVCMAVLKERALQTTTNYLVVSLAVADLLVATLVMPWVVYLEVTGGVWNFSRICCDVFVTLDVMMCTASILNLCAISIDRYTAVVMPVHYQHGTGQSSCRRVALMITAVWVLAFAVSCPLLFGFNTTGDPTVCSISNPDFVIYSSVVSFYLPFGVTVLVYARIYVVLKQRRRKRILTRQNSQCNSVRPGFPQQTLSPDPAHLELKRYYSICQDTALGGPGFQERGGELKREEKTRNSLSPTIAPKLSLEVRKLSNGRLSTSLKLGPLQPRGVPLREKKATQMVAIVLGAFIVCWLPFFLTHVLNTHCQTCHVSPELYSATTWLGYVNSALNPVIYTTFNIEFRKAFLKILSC

[7] = target: T2, D(2) dopamine receptor; experiment: Displacement of [3H]7-OH-DPAT from human high affinity Dopamine D2S receptor by competition binding assay
[8] = target: Sodium-dependent serotonin transporter (Homo sapiens, UniProt P31645); experiment: Displacement of [3H]imipramine from human SERT expressed in CHO cells by competition binding assay; assay type: cell-based; settings: read-out: Ki(app)
Sodium-dependent serotonin transporter, sequence (P31645 whole entry): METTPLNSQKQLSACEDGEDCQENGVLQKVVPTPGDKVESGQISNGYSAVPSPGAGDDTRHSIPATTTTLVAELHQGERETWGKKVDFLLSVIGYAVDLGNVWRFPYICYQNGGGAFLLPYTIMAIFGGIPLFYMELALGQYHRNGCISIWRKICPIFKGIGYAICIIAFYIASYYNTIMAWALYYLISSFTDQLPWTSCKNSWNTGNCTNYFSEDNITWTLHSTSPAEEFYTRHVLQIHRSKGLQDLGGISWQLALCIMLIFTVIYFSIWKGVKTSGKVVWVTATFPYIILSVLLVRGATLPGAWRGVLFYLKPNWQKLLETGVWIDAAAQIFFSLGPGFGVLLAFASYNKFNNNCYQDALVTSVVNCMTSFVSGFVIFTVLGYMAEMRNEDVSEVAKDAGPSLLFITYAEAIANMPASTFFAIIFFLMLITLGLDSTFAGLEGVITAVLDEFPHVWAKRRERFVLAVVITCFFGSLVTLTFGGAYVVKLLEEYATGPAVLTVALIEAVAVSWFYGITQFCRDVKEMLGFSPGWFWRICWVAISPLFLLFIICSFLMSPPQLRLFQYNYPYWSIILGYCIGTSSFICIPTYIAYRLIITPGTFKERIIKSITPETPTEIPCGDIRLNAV

[9] = target: T3, 5-hydroxytryptamine receptor 1A (Homo sapiens) (UniProt P08908); experiment: Displacement of [3H]8- OH-DPAT from human 5-HT1A at 1 uM by CEREP assay
T3 sequence (whole entry): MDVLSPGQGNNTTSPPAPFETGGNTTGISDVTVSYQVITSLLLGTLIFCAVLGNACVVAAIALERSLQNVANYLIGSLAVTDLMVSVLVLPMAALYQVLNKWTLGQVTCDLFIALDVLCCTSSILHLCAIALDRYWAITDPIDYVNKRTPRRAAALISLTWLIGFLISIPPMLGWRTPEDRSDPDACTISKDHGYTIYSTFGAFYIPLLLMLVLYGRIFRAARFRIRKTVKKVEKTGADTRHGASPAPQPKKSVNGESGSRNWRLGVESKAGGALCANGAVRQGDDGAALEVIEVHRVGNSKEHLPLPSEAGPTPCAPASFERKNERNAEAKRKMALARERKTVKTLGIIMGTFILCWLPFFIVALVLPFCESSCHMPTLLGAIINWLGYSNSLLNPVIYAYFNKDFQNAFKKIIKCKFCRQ

[10] = target: T4, D(4) dopamine receptor (Homo sapiens) (UniProt P21917); experiment: Displacement of [3H]methylspiperone from human dopamine D4 receptor at 1 uM by CEREP assay
T4 sequence (whole entry): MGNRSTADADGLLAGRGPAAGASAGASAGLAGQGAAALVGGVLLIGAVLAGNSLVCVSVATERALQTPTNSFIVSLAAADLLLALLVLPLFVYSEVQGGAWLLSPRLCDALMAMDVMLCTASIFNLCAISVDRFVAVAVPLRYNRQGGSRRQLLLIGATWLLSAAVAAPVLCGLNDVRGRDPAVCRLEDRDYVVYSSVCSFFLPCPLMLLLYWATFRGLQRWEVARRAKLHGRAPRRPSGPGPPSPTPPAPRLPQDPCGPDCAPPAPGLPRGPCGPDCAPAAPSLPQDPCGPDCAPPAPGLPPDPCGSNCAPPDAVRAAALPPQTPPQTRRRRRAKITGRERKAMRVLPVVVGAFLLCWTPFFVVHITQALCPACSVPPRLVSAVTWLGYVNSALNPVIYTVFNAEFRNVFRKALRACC

[11] = tested on: Rattus norvegicus; experiment: Increase in DOPAC level in Sprague-Dawley rat striatum at 100 umol/kg, sc by HPLC analysis relative to saline-treated control; assay type: functional
[12] = target: 5-hydroxytryptamine receptor 2A (Homo sapiens, UniProt P28223); experiment: Displacement of [3H]ketanserin from human 5-HT2A at 1 uM by CEREP assay
5-hydroxytryptamine receptor 2A, sequence (P28223 whole entry): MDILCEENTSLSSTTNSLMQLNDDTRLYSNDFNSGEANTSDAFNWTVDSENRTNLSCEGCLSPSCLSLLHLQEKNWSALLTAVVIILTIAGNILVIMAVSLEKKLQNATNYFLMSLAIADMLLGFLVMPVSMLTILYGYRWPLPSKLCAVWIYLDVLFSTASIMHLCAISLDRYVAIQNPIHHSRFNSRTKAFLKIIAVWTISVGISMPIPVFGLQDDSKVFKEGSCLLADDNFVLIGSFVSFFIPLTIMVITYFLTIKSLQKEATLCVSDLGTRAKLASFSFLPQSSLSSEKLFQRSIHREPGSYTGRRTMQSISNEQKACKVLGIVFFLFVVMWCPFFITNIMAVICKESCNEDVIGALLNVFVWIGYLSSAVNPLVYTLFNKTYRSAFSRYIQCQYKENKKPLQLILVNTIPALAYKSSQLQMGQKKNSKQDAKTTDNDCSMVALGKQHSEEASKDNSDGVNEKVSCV

[13] = species on record: Homo sapiens; experiment: Selectivity ratio of Ki(app) for human low affinity Dopamine D2S receptor to Ki(app) for human high affinity Dopamine D2S receptor
[14] = target: T5, Alpha-2A adrenergic receptor (Homo sapiens) (UniProt P08913); experiment: Displacement of [3H]UK 14.304 from human adrenergic alpha2A receptor at 1 uM
T5 sequence (whole entry): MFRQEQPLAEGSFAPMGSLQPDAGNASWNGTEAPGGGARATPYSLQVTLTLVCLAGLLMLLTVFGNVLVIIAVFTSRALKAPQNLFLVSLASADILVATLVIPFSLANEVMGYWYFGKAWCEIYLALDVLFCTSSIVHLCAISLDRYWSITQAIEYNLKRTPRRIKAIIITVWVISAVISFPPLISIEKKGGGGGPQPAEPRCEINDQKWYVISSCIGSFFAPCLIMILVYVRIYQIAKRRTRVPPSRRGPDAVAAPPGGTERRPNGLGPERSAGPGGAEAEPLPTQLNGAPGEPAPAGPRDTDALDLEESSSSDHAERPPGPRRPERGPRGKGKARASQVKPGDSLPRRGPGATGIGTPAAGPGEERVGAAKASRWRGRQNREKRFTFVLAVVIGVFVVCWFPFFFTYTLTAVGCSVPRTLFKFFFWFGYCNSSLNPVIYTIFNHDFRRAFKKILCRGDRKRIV

[15] = tested on: Rattus norvegicus; experiment: Increase in DOPAC level in sc dosed Sprague-Dawley rat striatum by HPLC analysis; assay type: functional
[16] = tested on: Rattus norvegicus; experiment: Reduction in spontaneous locomotor activity in Sprague-Dawley rat at 33 umol/kg, sc measured after 15 to 60 mins relative to saline-treated control; assay type: functional; parameters: scale not given: the % may be the effect or the level left
[17] = tested on: Rattus norvegicus; experiment: Increase in DOPAC level in Sprague-Dawley rat striatum at 33 umol/kg, sc by HPLC analysis relative to saline-treated control; assay type: functional
[18] = tested on: Rattus norvegicus; experiment: Decrease in 5-HIAA level in Sprague-Dawley rat striatum at 33 umol/kg, sc by HPLC analysis relative to saline-treated control; assay type: functional; parameters: scale not given: the % may be the effect or the level left
[19] = Binding affinity to 5-HT receptor
[20] = Binding affinity to dopamine receptor

SMILES | Ki [1] | Ki [3] | Activity [4] | Activity [5] | Ki [7] | Ki [8] | Activity [11] | Ratio Ki(app) [13] | ED50 [15] | further results
CCCN1CCC(c2coc3ccccc23)CC1 | 0.092 µM | 2.72 µM | 75% | 84% | 0.803 µM | 0.827 µM | 35% |  |  | inhibition [2]: 34%; inhibition [6]: 28%; inhibition [9]: 49%; inhibition [10]: 26%
CCCN1CCC(c2ccc3ccccc3c2)CC1 | 0.063 µM | 2.87 µM | 22% | 70% | 1.54 µM | 0.127 µM | 32% | 1.9 |  | inhibition [12]: 91%; inhibition [2]: 47%; inhibition [14]: 20%; inhibition [9]: 41%
CCCN1CCC(c2cn(C)c3cc(F)ccc23)CC1 | 4.05 µM | 0.275 µM | 27% | 95% | 0.157 µM | 0.045 µM | 264% | 1.7 | 33 µmol/kg | 
CCCN1CCC(c2cccc3ccccc23)CC1 | 5.42 µM | 0.112 µM | 62% | 76% | 0.041 µM | 0.052 µM | 218% | 2.7 | 103 µmol/kg | 
CCCN1CCC[C@@H](c2cccc(S(C)(=O)=O)c2)C1 |  |  | 215% | 100% |  |  | 260% |  | 63 µmol/kg | 
CCCN1CCC(c2cn(C)c3ccc(F)cc23)CC1 | 6.86 µM | 0.032 µM |  |  | 0.019 µM | 0.058 µM |  | 1.7 | 3 µmol/kg | Activity [16]: 9%; Activity [17]: 275%; Activity [18]: 87%
CCCN1CCC(n2ccc3ccccc32)CC1 | 74.9 µM | 1.14 µM | 92% | 87% | 0.109 µM | 0.054 µM | 227% | 10 | 126 µmol/kg | 
CCCN1CCC(c2noc3cc(F)ccc23)CC1 | 2.23 µM | 0.194 µM |  |  | 0.034 µM | 29.8 µM |  | 5.7 | 4 µmol/kg | inhibition [2]: 15%; Activity [16]: 8.3%; inhibition [6]: 83%; inhibition [9]: 17%; inhibition [10]: 37%; Activity [17]: 350%; Activity [18]: 111%
CCCN1CCC(c2csc3ccccc23)CC1 | 14 µM | 0.121 µM | 48% | 79% | 0.026 µM | 0.0065 µM | 290% | 4.6 | 54 µmol/kg | 
CCCN1CC=C(c2c[nH]c3ccc(Cl)cc23)CC1 |  |  |  |  |  |  |  |  |  | Activity [19]: 260 nM; Activity [20]: 80 nM
CCCN1CCC(N2C(=O)C(=O)c3ccccc32)CC1 |  | 12.2 µM | 118% | 95% | 12.8 µM | 23.8 µM | 101% | 0.9 | inactive | IC50 [1]: > 580 µM
CCCN1CCC(n2cnc3ccccc32)CC1 |  |  | 20% | 98% | 10.8 µM | 0.122 µM | 111% |  | inactive | IC50 [1]: > 580 µM; IC50 [3]: > 580 µM
CCCN1CCC(n2c(=O)n(C)c3cc(Cl)ccc32)CC1 |  | 2 µM | 27% | 113% | 5.18 µM | 2.24 µM | 253% | 0.4 | 47 µmol/kg | IC50 [1]: > 580 µM
CCCN1CCC(c2cccc(S(C)(=O)=O)c2)CC1 [PRIDOPIDINE] |  |  |  |  |  |  |  |  | 81 µmol/kg | 
CCCN1CCC(c2cc3ccccc3s2)CC1 | 0.018 µM | 2.33 µM | 37% | 76% | 0.574 µM | 0.13 µM | 28% | 4 |  | inhibition [12]: 95%; inhibition [2]: 67%; inhibition [14]: 21%; inhibition [9]: 23%
CCCN1CCC(c2c[nH]c3cc(F)ccc23)CC1 | 15.8 µM | 0.027 µM |  |  | 0.043 µM | 0.045 µM |  | 0.6 | 4.1 µmol/kg | inhibition [12]: 100%; inhibition [2]: 1%; Activity [16]: 2.8%; inhibition [14]: 91%; inhibition [9]: 14%; Activity [17]: 299%; Activity [18]: 93%
CCCN1CCC(c2n[nH]c3ccccc23)CC1 | 7.44 µM | 1.07 µM |  |  | 0.187 µM | 5.64 µM |  | 5.7 | 55 µmol/kg | Activity [16]: 7%; Activity [17]: 227%; Activity [18]: 105%
